Active and inactive are the calls of the source.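 Rule for the calls: active = STAT1 reporter activators whose half-maximal activating concentration EC50 is 10 µM or lower; inactive = EC50 above 10 µM or no activation.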
test system: NIH 3T3 STAT1 luciferase reporter, luminescence; test: STAT1 transcription enhancement, IFN-gamma induced – cell-based, NIH 3T3, luciferase luminescence, counter-screen for STAT3 activator project, dose response (AID 1406); conditions: not given

Row | SMILES | EC50
1 | c1ccc2c(CNC3CCCCCC3)c[nH]c2c1 | > 55.7 µM (inactive)
2 | CC1=NN(c2ccccc2)C(=O)/C1=C/c1c(O)[nH]c(=O)[nH]c1=O | > 55.7 µM (inactive)

same assay, conditions: cells stimulated with IFN-gamma at EC80

Row | SMILES | EC50
3 | Cc1cc(C)n(-c2nnc3n2N=C(c2c[nH]c4ccccc24)CS3)n1 | > 55.7 µM (inactive)
4 | COc1ccc(-c2nc3scc(-c4ccccc4)n3n2)cc1 | > 55.7 µM (inactive)
5 | Cc1nonc1CC(=O)N1CCc2c([nH]c3ccccc23)C1c1ccccc1F (stereo not drawn) | > 55.7 µM (inactive)
6 | COC(=O)NNC(=O)c1ccccc1OC | > 55.7 µM (inactive)
7 | CC(C)CC(=O)NC(=S)Nc1nc(-c2ccccc2)cs1 | > 55.7 µM (inactive)
8 | COC(=O)c1sccc1NC(=O)c1ccc(Br)s1 | > 55.7 µM (inactive)
9 | CCOc1ccccc1CN1CCN(Cc2cc3ccccc3[nH]2)CC1CCO (stereo not drawn) | > 55.7 µM (inactive)
10 | CC1CCN(C(=O)Cn2c(=O)n(CCc3ccccc3)c(=O)c3ccccc32)CC1 | > 55.7 µM (inactive)
11 | O=C(O)C(Cc1c[nH]c2ccccc12)N1Cc2ccccc2C1=O (stereo not drawn) | > 55.7 µM (inactive)
12 | CCN1CCN(C(=O)c2cc3c(-c4ccc(Cl)cc4)nn(C)c3s2)CC1 | > 55.7 µM (inactive)
13 | O=C(Cc1cnc2ncnn2c1)N1CCc2c([nH]c3ccccc23)C1c1ccccc1F (stereo not drawn) | > 55.7 µM (inactive)
14 | Cc1nc2ccccc2cc1O | > 55.7 µM (inactive)
15 | Cc1ccc(CC(=O)Nc2nc3c(s2)CCCC3)cc1 | > 55.7 µM (inactive)
16 | COc1ccccc1C(=O)NNC(=O)c1ccc(NC(=O)C(C)C)cc1 | > 55.7 µM (inactive)
17 | CC(=O)Nc1c(Cl)n(C(C)=O)c2ccccc12 | > 55.7 µM (inactive)
18 | Cc1ccccc1C1c2[nH]c3ccccc3c2CCN1C(=O)c1ccc(=O)n(C)n1 (stereo not drawn) | > 55.7 µM (inactive)
19 | Cc1cccc(NC(=O)c2cc([N+](=O)[O-])ccc2Cl)c1O | > 55.7 µM (inactive)
20 | CCOC(=O)c1sc(NCc2ccco2)c(-c2nc3ccccc3s2)c1N | > 55.7 µM (inactive)
21 | Cc1[nH]n(-c2ccccc2)c(=O)c1/C=C1/C=c2ccccc2=N1 | > 55.7 µM (inactive)
22 | COCCCNc1nc2c(-c3cccc(C(F)(F)F)c3)nnn2c2ccccc12 | > 55.7 µM (inactive)
23 | CCCc1cc(C(=O)Nc2cc(OC)c(Cl)cc2OC)no1 | > 55.7 µM (inactive)
24 | COCc1cc(=O)n2c(-c3ccccc3OC)n[nH]c2n1 | > 55.7 µM (inactive)
25 | O=C(Nc1nnc(-c2ccccc2Cl)o1)c1nc2ccccc2s1 | > 55.7 µM (inactive)
26 | COCCNC(=O)c1cc2c(-c3ccc(Cl)cc3)nn(C)c2s1 | > 55.7 µM (inactive)
27 | CCC(=O)NCCSc1c[nH]c2ccccc12 | > 55.7 µM (inactive)
28 | O=C(CCCSc1nc2ccccc2s1)NCc1ccco1 | > 55.7 µM (inactive)

Row | SMILES | EC50
29 | CCOc1ccc(CN2CCN(Cc3cc4ccccc4[nH]3)CC2CCO)cc1 (stereo not drawn) | > 55.7 µM (inactive)
30 | COc1ccccc1C(=O)Nc1cc(Cl)ccc1O | > 55.7 µM (inactive)
31 | COc1ccc(C2c3[nH]c4ccccc4c3CCN2C(=O)c2cc3ncccn3n2)c(F)c1 (stereo not drawn) | > 55.7 µM (inactive)
32 | Cc1noc(/C=C/N(C)C)c1S(=O)(=O)N1CCc2ccccc21 | > 55.7 µM (inactive)
33 | COc1ccc(C2c3[nH]c4ccccc4c3CCN2C(=O)c2ccc(=O)n(C)n2)c(F)c1 (stereo not drawn) | > 55.7 µM (inactive)
34 | CCn1c(C(=O)Nc2ccsc2C(=O)OC)cc2sc(Cl)cc21 | > 55.7 µM (inactive)
35 | COc1ccc(S(=O)(=O)Nc2nc3ccccc3s2)cc1OC | > 55.7 µM (inactive)
36 | Cc1cccc2c1NC(=O)/C2=C\C(=O)c1cccs1 | > 55.7 µM (inactive)
37 | O=C(CCc1nnc(Cc2ccc3c(c2)OCO3)o1)NCc1nc2ccccc2s1 | > 55.7 µM (inactive)
38 | CC(=O)NCCC(=O)N1CCc2c([nH]c3ccccc23)C1c1cccc(Cl)c1 (stereo not drawn) | > 55.7 µM (inactive)
39 | CCOC(=O)CC1C(=O)NCCN1C(=O)c1cc2c(=O)n3cccc(C)c3nc2s1 (stereo not drawn) | > 55.7 µM (inactive)
40 | O=C(Nc1ccccc1O)c1csc2c1CCCC2 | > 55.7 µM (inactive)
41 | COC(=O)c1n[nH]c2ccccc12 | > 55.7 µM (inactive)
42 | Cc1nn(-c2ccc(Cl)cc2)c(N)c1C(O)(CSc1nccn1C)C(F)(F)F (stereo not drawn) | > 55.7 µM (inactive)
43 | CCC(C(=O)Nc1ccccc1OC)n1c(C(=O)OC)cc2ccsc21 (stereo not drawn) | > 55.7 µM (inactive)
44 | O=C(COc1ccccc1Cl)Nc1cc(Cl)ccc1O | > 55.7 µM (inactive)
45 | COc1ccc(Br)cc1C(=O)Nc1cccc(C)c1 | > 55.7 µM (inactive)
46 | COC(=O)c1sccc1NC(=O)c1cc2c(s1)CCCC2 | > 55.7 µM (inactive)
47 | Cn1nc(-c2ccc(Cl)cc2)c2cc(C(=O)NCCN3CCOCC3)sc21 | > 55.7 µM (inactive)
48 | COc1cccc2sc(Nc3nnc(-c4ccc(F)cc4)o3)nc12 | > 55.7 µM (inactive)
49 | O=c1c2ccccc2ncn1Cc1ccco1 | > 55.7 µM (inactive)
50 | COCCCNC(=O)c1cc2c(-c3ccc(Cl)cc3)nn(C)c2s1 | > 55.7 µM (inactive)
51 | Nc1nc(-c2ccc(Cl)cc2)nn1C(=O)c1cccs1 | > 55.7 µM (inactive)
52 | CC(=O)NCCC(=O)N1CCc2c([nH]c3ccccc23)C1c1cccc(C)c1 (stereo not drawn) | > 55.7 µM (inactive)
53 | CCN(CC)S(=O)(=O)c1ccc(-c2nnc3sc4cccc(C)c4n23)cc1 | > 55.7 µM (inactive)
54 | COc1ccccc1-c1nnc(SCC(=O)NC2CCCCC2)o1 | > 55.7 µM (inactive)

Row | SMILES | EC50
55 | Cc1nnc(NC(=O)c2oc3c(ccc4ccccc43)c2C)s1 | > 55.7 µM (inactive)
56 | Cc1c(C#N)c2ccccc2n1CC(=O)O | > 55.7 µM (inactive)
57 | CCCSc1nnc(Sc2nnnn2-c2ccccc2)s1 | > 55.7 µM (inactive)
58 | CN(Cc1ccccc1)Cc1c[nH]c2ccccc12 | > 55.7 µM (inactive)
59 | Cc1nc2c(n1C1CCCCC1)C(=O)c1ccccc1C2=O | > 55.7 µM (inactive)
60 | O=C(Cc1cccs1)Nc1ccccn1 | > 55.7 µM (inactive)
61 | CN(C)C(CN1C(=O)C2CC=CCC2C1=O)c1cn(C)c2ccccc12 (stereo not drawn) | > 55.7 µM (inactive)
62 | CC(C)CC1c2[nH]c3ccccc3c2CCN1C(=O)CCC(=O)N(C)C (stereo not drawn) | > 55.7 µM (inactive)
63 | COc1cc(NC(=O)c2cc(-c3ccco3)on2)c(OC)cc1Cl | > 55.7 µM (inactive)
64 | O=C(CCN1CCOCC1)N1CCc2c([nH]c3ccccc23)C1c1cccc(Cl)c1 (stereo not drawn) | > 55.7 µM (inactive)
65 | COc1ccc(Cl)cc1NC(=O)c1oc(C)nc1C | > 55.7 µM (inactive)
66 | COc1ccc(-c2nnc(Nc3nc4c(OC)cccc4s3)o2)cc1 | > 55.7 µM (inactive)
67 | Cc1nc(/N=C(\N)Nc2ccccc2)nc2ccccc12 | > 55.7 µM (inactive)
68 | Nc1ccccc1Sc1nc2ccccc2[nH]1 | > 55.7 µM (inactive)
69 | O=C(Cc1c[nH]c2ccccc12)Nc1nc2ccccc2[nH]1 | > 55.7 µM (inactive)
70 | CN1N=C(C(=O)N2CCc3c([nH]c4ccccc34)C2c2c(F)cccc2Cl)CCC1=O (stereo not drawn) | > 55.7 µM (inactive)
71 | CCOc1ccccc1-c1n[nH]c(=S)o1 | > 55.7 µM (inactive)
72 | COc1ccc(CN2CCN(S(=O)(=O)c3ccc(C)cc3)CC2)cc1Br | > 55.7 µM (inactive)
73 | O=C(c1cccnc1)N1CCc2ccccc21 | > 55.7 µM (inactive)
74 | CCCN(CCC)C(=O)Cn1c2ccccc2c2nc(=O)cc(C)n21 | > 55.7 µM (inactive)
75 | COc1cccc(-c2nc(N3CCCCC3C)c3ccccc3n2)c1O (stereo not drawn) | > 55.7 µM (inactive)
76 | CN(C)C(=O)COC(=O)/C=C/c1ccccc1[N+](=O)[O-] | > 55.7 µM (inactive)
77 | NC(=O)CSc1c[nH]c2ccccc12 | > 55.7 µM (inactive)
78 | COc1ccccc1NC(=O)c1[nH]c(C)c(C(C)=O)c1C | > 55.7 µM (inactive)
79 | CC1=C(C)C(=O)C(N2CCOCC2)=CC1=O | > 55.7 µM (inactive)
80 | CN1C(=O)c2ccccc2C(C(=O)NCCCN2CCCC2=O)C1c1c[nH]c2ccccc12 (stereo not drawn) | > 55.7 µM (inactive)

Row | SMILES | EC50
81 | COCc1cc(C)nc2sc(C(=O)NN)c(-n3cccc3)c12 | > 55.7 µM (inactive)
82 | O=C(c1cc[n+]([O-])cc1)N1CCc2c([nH]c3ccccc23)C1c1ccccc1Cl (stereo not drawn) | > 55.7 µM (inactive)
83 | COc1ccccc1C(=O)NNC(=S)Nc1ccccc1 | > 55.7 µM (inactive)
84 | c1ccc2c(c1)CCCN2c1nc2ccccc2n2cnnc12 | > 55.7 µM (inactive)
85 | CCCNC(=O)Cn1c2ccccc2c2nc(=O)cc(C)n21 | > 55.7 µM (inactive)
86 | CC(=O)n1cc(Nc2ccc([N+](=O)[O-])cc2)c2ccccc21 | > 55.7 µM (inactive)
87 | CN1CCN(CCCNC(=O)c2cc3c(-c4ccc(Cl)cc4)nn(C)c3s2)CC1 | > 55.7 µM (inactive)
88 | COc1ccc(Cl)cc1-c1nc(-c2ccc(Br)o2)no1 | > 55.7 µM (inactive)
89 | Cc1cc(-c2ccc(Cl)cc2)c(C#N)c(N)n1 | > 55.7 µM (inactive)
90 | O=C(C1CCCN(S(=O)(=O)c2cccc3cccnc23)C1)N1CCc2ccccc21 (stereo not drawn) | > 55.7 µM (inactive)
91 | Cc1c(C(=O)NCc2cccnc2)oc2ccc(S(=O)(=O)N3CC(C)CC(C)C3)cc12 (stereo not drawn) | > 55.7 µM (inactive)
92 | O=C(CN1CCNCC1)Nc1ccc(Oc2ccccc2)cc1 | > 55.7 µM (inactive)
93 | Cn1c(CNc2ccccc2O)nc2ccccc21 | > 55.7 µM (inactive)
94 | CCc1cc2c(NCCC(=O)O)nc(C)nc2s1 | > 55.7 µM (inactive)
95 | CCOC(=O)C1(CC2CCCCO2)CCN(Cc2cc3ccccc3[nH]2)CC1 (stereo not drawn) | > 55.7 µM (inactive)
96 | O=C(O)C1CC=CCC1C(=O)Nc1ccc(S(=O)(=O)N2CCCc3ccccc32)cc1 (stereo not drawn) | > 55.7 µM (inactive)
97 | COC(=O)C(NC=O)C(O)(Cc1ccccc1)C(F)(F)F (stereo not drawn) | > 55.7 µM (inactive)
98 | CC(OC(=O)c1cccnc1SCc1cc(=O)n2ccccc2n1)c1ccccn1 (stereo not drawn) | > 55.7 µM (inactive)
99 | COc1cc(NC(=O)c2cc(C3CC3)on2)c(OC)cc1Cl | > 55.7 µM (inactive)
100 | CCC(CC)NC(=O)Cc1ccccc1[N+](=O)[O-] | > 55.7 µM (inactive)
101 | N#Cc1cn(CC(=O)O)c2ccccc12 | > 55.7 µM (inactive)
102 | CCOc1cc(-c2ccc(N)c(OCC)c2)ccc1N | > 55.7 µM (inactive)
103 | COc1ccc(C)cc1NC(=O)c1[nH]c(C)c(C(C)=O)c1C | > 55.7 µM (inactive)

Reference: PubChem BioAssay AID1406 (The Scripps Research Institute Molecular Screening Center, 2008)
